Measurements: PMC11589570, “Critical assessment of LC3/GABARAP ligands used for degrader development and ligandability of LC3/GABARAP binding pockets” (Nature Communications, 2024)
“And” between values parts separate entries of the source, which are not always exact repeats. Equal entries are not always repeated.

What was measured:
Assay in all cases: FP assay with Cy5-labelled p62 LIR tracer (protein titration and tracer displacement)
Format in all cases: binding
[1] = molecular target: GABARAPL1 (Homo sapiens, UniProt Q9H0R8); settings: for normalized FP signal, p62 LIR tracer displacement: GABARAPL1; for compound titration GABARAPL1 (displacement curve, FP signal): two replicate columns per compound; for FP tracer displacement curve signal (compound titration): duplicate values
[2] = molecular target: LC3C (Homo sapiens, UniProt Q9BXW4); settings: for normalized FP signal, p62 LIR tracer displacement: LC3C, listed as AN2; for compound titration LC3C (displacement curve, FP signal): two replicate columns per compound
[3] = molecular target: GABARAP (Homo sapiens, UniProt O95166); settings: for normalized FP signal, p62 LIR tracer displacement: GABARAP; for compound titration GABARAP (displacement curve, FP signal): two replicate columns per compound
[4] = log10 concentration [M] -3.82391, listed as AN2
[5] = log10 concentration [M] -4.1549, listed as AN2
[6] = log10 concentration [M] -4.60206, listed as AN2
[7] = log10 concentration [M] -5, listed as AN2
[8] = log10 concentration [M] -5.30103, listed as AN2
[9] = log10 concentration [M] -5.69897
[10] = log10 concentration [M] -6.22185, listed as AN2
[11] = log10 concentration [M] -6.69897, listed as AN2
[12] = log10 concentration [M] -7.30103, listed as AN2
[13] = log10 concentration [M] -7.79588, listed as AN2
[14] = log10 concentration [M] -8.08092, listed as AN2
[15] = log10 concentration [M] -3.82391
[16] = log10 concentration [M] -4.1549
[17] = log10 concentration [M] -4.60206
[18] = log10 concentration [M] -5.30103
[19] = log10 concentration [M] -6.22185
[20] = log10 concentration [M] -6.69897
[21] = log10 concentration [M] -7.30103
[22] = log10 concentration [M] -7.79588
[23] = log10 concentration [M] -8.08092

Chain of LC3C (Q9BXW4 1-126): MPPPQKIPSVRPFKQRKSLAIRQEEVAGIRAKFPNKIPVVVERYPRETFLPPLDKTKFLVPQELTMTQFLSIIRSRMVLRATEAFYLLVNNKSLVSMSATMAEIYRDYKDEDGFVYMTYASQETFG
Chain of GABARAPL1 (Q9H0R8 whole entry): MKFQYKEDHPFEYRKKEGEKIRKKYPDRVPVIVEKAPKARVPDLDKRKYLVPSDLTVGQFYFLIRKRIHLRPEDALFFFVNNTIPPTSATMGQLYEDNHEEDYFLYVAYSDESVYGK
Chain of GABARAP (O95166 1-116): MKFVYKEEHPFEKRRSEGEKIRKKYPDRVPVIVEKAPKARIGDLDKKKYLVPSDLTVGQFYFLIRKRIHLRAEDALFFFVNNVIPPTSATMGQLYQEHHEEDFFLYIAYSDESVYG

## O=c1cc(-c2ccccc2)c2c(O)cc(O)cc2o1 [compound 2]
[1]; [4]
  normalized FP signal, p62 LIR tracer displacement: 90.5714 and 94.4286
[1]; [5]
  normalized FP signal, p62 LIR tracer displacement: 97.5714 and 96.8571
[1]; [6]
  normalized FP signal, p62 LIR tracer displacement: 97.1429 and 99
[1]; [7]
  normalized FP signal, p62 LIR tracer displacement: 102.429 and 102.286
[1]; [8]
  normalized FP signal, p62 LIR tracer displacement: 100.429 and 101.143
[1]; [9]
  normalized FP signal, p62 LIR tracer displacement: 94.4286
  FP tracer displacement curve signal (compound titration): 94.4286
[1]; [10]
  normalized FP signal, p62 LIR tracer displacement: 98.5714 and 100.714
  FP tracer displacement curve signal (compound titration): 98.5714 and 100.714
[1]; [11]
  normalized FP signal, p62 LIR tracer displacement: 98.7143 and 100.143
  FP tracer displacement curve signal (compound titration): 98.7143 and 100.143
[1]; [12]
  normalized FP signal, p62 LIR tracer displacement: 102 and 99.5714
  FP tracer displacement curve signal (compound titration): 102 and 99.5714
[1]; [13]
  normalized FP signal, p62 LIR tracer displacement: 98.1429 and 99.4286
  FP tracer displacement curve signal (compound titration): 98.1429 and 99.4286
[1]; [14]
  normalized FP signal, p62 LIR tracer displacement: 98.8571 and 103.429
  FP tracer displacement curve signal (compound titration): 98.8571 and 103.429
[1]; [15]
  compound titration GABARAPL1 (displacement curve, FP signal): 90.5714 and 94.4286
[1]; [16]
  compound titration GABARAPL1 (displacement curve, FP signal): 97.5714 and 96.8571
[1]; [17]
  compound titration GABARAPL1 (displacement curve, FP signal): 97.1429 and 99
[1]; log10 concentration [M] -5
  compound titration GABARAPL1 (displacement curve, FP signal): 102.429 and 102.286
[2]; [15]
  normalized FP signal, p62 LIR tracer displacement: 84.2 and 87
  compound titration LC3C (displacement curve, FP signal): 84.2 and 87
[2]; [16]
  normalized FP signal, p62 LIR tracer displacement: 90.8 and 97
  compound titration LC3C (displacement curve, FP signal): 90.8 and 97
[2]; [17]
  normalized FP signal, p62 LIR tracer displacement: 92.6 and 96.6
  compound titration LC3C (displacement curve, FP signal): 92.6 and 96.6
[2]; log10 concentration [M] -5
  normalized FP signal, p62 LIR tracer displacement: 91.6 and 99.8
  compound titration LC3C (displacement curve, FP signal): 91.6 and 99.8
[2]; [18]
  normalized FP signal, p62 LIR tracer displacement: 95.6 and 98.4
  compound titration LC3C (displacement curve, FP signal): 95.6 and 98.4
[2]; [9]
  normalized FP signal, p62 LIR tracer displacement: 90.8 and 90.6
  compound titration LC3C (displacement curve, FP signal): 90.8 and 90.6
[2]; [19]
  normalized FP signal, p62 LIR tracer displacement: 97.2 and 95.2
  compound titration LC3C (displacement curve, FP signal): 97.2 and 95.2
[2]; [20]
  normalized FP signal, p62 LIR tracer displacement: 99.8 and 97.8
  compound titration LC3C (displacement curve, FP signal): 99.8 and 97.8
[2]; [21]
  normalized FP signal, p62 LIR tracer displacement: 98 and 96.2
  compound titration LC3C (displacement curve, FP signal): 98 and 96.2
[2]; [22]
  normalized FP signal, p62 LIR tracer displacement: 91.6 and 93.8
  compound titration LC3C (displacement curve, FP signal): 91.6 and 93.8
[2]; [23]
  normalized FP signal, p62 LIR tracer displacement: 99 and 100.4
  compound titration LC3C (displacement curve, FP signal): 99 and 100.4
[3]; [4]
  normalized FP signal, p62 LIR tracer displacement: 92.5862 and 91.2069
[3]; [5]
  normalized FP signal, p62 LIR tracer displacement: 93.9655 and 97.069
[3]; [6]
  normalized FP signal, p62 LIR tracer displacement: 97.069 and 101.207
[3]; [7]
  normalized FP signal, p62 LIR tracer displacement: 96.5517 and 105.172
[3]; [8]
  normalized FP signal, p62 LIR tracer displacement: 96.8966 and 99.8276
[3]; log10 concentration [M] -5.69897, listed as AN2
  normalized FP signal, p62 LIR tracer displacement: 95.5172 and 91.0345
[3]; [10]
  normalized FP signal, p62 LIR tracer displacement: 96.2069 and 97.7586
[3]; [11]
  normalized FP signal, p62 LIR tracer displacement: 98.1034 and 96.7241
[3]; [21]
  normalized FP signal, p62 LIR tracer displacement: 99.8276
[3]; [13]
  normalized FP signal, p62 LIR tracer displacement: 98.1034 and 97.931
[3]; [23]
  normalized FP signal, p62 LIR tracer displacement: 97.5862
[3]; [14]
  normalized FP signal, p62 LIR tracer displacement: 104.655
[3]; [15]
  compound titration GABARAP (displacement curve, FP signal): 92.5862 and 91.2069
[3]; [16]
  compound titration GABARAP (displacement curve, FP signal): 93.9655 and 97.069
[3]; [17]
  compound titration GABARAP (displacement curve, FP signal): 97.069 and 101.207
